Marks after values point to notes of the source that are not given here.
Assays:
sAPPα = sAPPα release into medium of SH-SY5Y neuroblastoma cells; format: cell-based, human; conditions: 1 μM, 3 h, SH-SY5Y conditioned media, mean ± SE of three experiments
Method: For the experiments, cells were seeded (2×10^6) onto 100-mm plates (for SH-SY5Y cells) or T75 flasks (for PC12 cells) in culture medium supplemented with full serum for 48 h. The cells were replaced with fresh medium containing 0.5% FCS for an additional 24 h (subconfluent culture), and then the experiments were performed in fresh medium containing 0.5% FCS for the indicated time periods at 37° C. After incubation with various drugs, the conditioned media were collected, centrifuged at 3500 g (10 min, 4° C.) to remove cell debris, and the cleared supernatants were concentrated 10-fold by lyophilization.
(vii) Determination of sAPP. Protein concentrations of cell lysates were assayed using Bradford reagent (Sigma Chemical). Equal amounts of volumes of conditioned medium, standardized to lysate protein, were subjected to […], using either the MAbs 22C11 or 6E10 in 50 mM Tris-HCl, pH 7.4, 150 mM NaCl, containing 0.05% Tween 20 and 1% BSA. Immunoreactivity was detected using anti-mouse IgG-conjugated with HRP and an enhanced chemiluminescence method (Amersham, Pharmacia Biotech, UK). Blots were developed for different times to span a linear range of response, and the relative intensity of immunoreactive bands on the exposed films was quantified by computer-assisted densitometry program (Quantity One, Bio-Rad, Hercules, Calif., USA).
It was of interest to determine whether rasagiline and other propargylamine-containing drugs also regulate APP processing. For this purpose, SH-SY5Y neuroblastoma cells were incubated for 3 h without or with 1 μM of various drugs (TV3326 and its S-isomer TV3279, rasagiline and its S-isomer TVP1022, selegiline, aminoindan), and sAPPα was measured in the media as described in Materials and Methods.
We further characterized, in detail, the effect of rasagiline on APP processing and the signaling pathways that are involved. Thus, SH-SY5Y neuroblastoma cells were incubated for 3 h without or with increasing concentrations of rasagiline (0.1, 1 and 10 μM), and sAPPα was measured in the media as described in Materials and Methods.
For the sAPPα release, SH-SY5Y neuroblastoma cells or PC12 cells were incubated for 3 h without or with increasing concentrations of propargylamine (0.1, 1 and 10 μM), and sAPPα was measured in the media as described in Materials and Methods.

PC12 cells [1] = experiment: Cell death under serum deprivation (apoptotic cell death detection ELISA), PC12; format: cell-based, rat; conditions: PC12, 24 h serum deprivation, significant at 1 and 10 μM
Method: Two different neuronal cell lines were used: the rat PC12 and the human neuroblastoma SH-SY5Y cells.
PC12 cells, originated from rat pheochromocytoma, were grown to confluence in T75 flasks containing DMEM (1000 mg/l glucose) and supplemented with 5% FCS, 10% horse serum, and a mixture of 1% of penicillin/streptomycin/nystatin.
Cell cultures were incubated at 37° C. in a humid 5% CO2-95% air environment. For cell viability assays, cells were treated with various drugs in serum free media containing 0.1% BSA.
In order to test cell viability, PC12 cells and SH-SY5Y neuroblastoma cels were incubated under serum deprivation and were untreated or treated with rasagiline (0.1. 1 or 10 μM) for 24 hours.

PC12 cells [2] = conditions: PC12, Aβ1-42 10 μM 24 h
MAO = conditions: Youdim et al., 2001b; cited from earlier work

SMILES: C#CCN[C@@H]1CCc2ccccc21 [TVP1022]
- sAPPα secretion (fold/basal) (sAPPα): 2.43 ± 0.27^c fold/basal
- cell death induced by serum deprivation (PC12 cells [1]): protected serum deprived PC12 cells from apoptosis
- protection against Aβ1-42 neurotoxicity (PC12 cells [2]): protected PC12 cells from Aβ-evoked apoptosis
- fold weaker as an inhibitor of MAO than rasagiline (MAO): at least 1000 fold

From patent publication US20050191348A1 (priority 2004, published 2005)
